Experimental data from patent publication US9567371B2, “Short beta-defensin-derived peptides” (Yeda Research and Development Co. Ltd., priority 2009, dated 2017).
Peptide text beside a SMILES is read from it.

Legend:
pre-B-ALL G2 cells = assay: Cell toxicity assay (propidium iodide exclusion, flow cytometry); type: cell-based, human; settings: 6 and 24 h, FIG. 1
Procedure: FIG. 1. […] G2 cells (1×10^6/ml) were cultured in 96-well flat-bottom wells in serum free IMDEM culture medium supplemented with L-glutamine and antibiotics, for 6 and 24 h at 37° C. with the indicated peptides. Untreated cells served as a control. After treatment, cells were stained with propidium iodide (PI) and its exclusion was analyzed by flow cytometry. Data shown are the percentage of Pr (dead) cells. Vertical bars represent standard deviation of duplicate experiments. *P<0.05 compared to untreated control.
Pre-B-ALL G2 cells and freshly isolated primary human CD3^+ T cells (1×10^6/ml) were cultured in 96-well flat-bottom wells in serum free IMDM or RPMI 1640 medium, respectively, both supplemented with L-glutamine and antibiotics, for 6 and 24 hrs at 37° C. (95% humidity, 5% CO2) with 10 μM, 100 μM or 1 mM of the peptides. Untreated cells served as a control. Cell viability was determined by propidium iodide (PI) exclusion by flow cytometry as described (Goichberg, P., et al., 2006).
In order to test cytotoxicity of the peptides, human pre-B-ALL G2 cells and freshly isolated primary human CD3^+ T cells (1×10^6/ml) were cultured in with 10 μM, 100 μM or 1 mM of TL-1, AK-1 and cyclic TL-1, as described in the Material and Methods. All tested peptides were not toxic for G2 cells (FIG. 1) as well as for primary human T cells at 10 μM and 100 μM. Even in the highest concentration, 1 mM, the peptides killed only 8-12% and 14-16% cells treated for 6 and 24 hrs, respectively, indicating a very low cytotoxicity of the peptides.

SDF-1 = SDF-1 plasma levels in injected mice (ELISA); type: in vivo, mouse; settings: 5 mg/kg s.c., compared with mice injected with PBS
Procedure: (§1) SDF-1 levels in tested samples were determined by ELISA as described (Kalinkovich, A., et al., 2006) where the K15C monoclonal antibodies (mAb, INRA, Paris, France) recognizing the first three amino acids of SDF-1 were utilized as a capture Ab (10 μg/mL) in order to measure levels of intact, non-cleaved SDF-1. Levels of basic FGF (bFGF) and HGF in tested samples were determined by using corresponding capture mAbs and polyclonal biotynilated Abs (R&D Systems) as recommended by the manufacturer. In order to examine SDF-1, bFGF and HGF levels in cell supernatants, MS-5, MBA-15 and MG-63 cells were seeded in 24-well Costar wells and cultivated in RPMI 1640 or αMEM Eagle medium, respectively, with 10% FCS. When the cells reached confluence, the medium was changed to serum free medium and cells were cultivated for additional 6 hrs in the presence of various concentrations of the peptides. Medium samples were collected and centrifuged 10 min at 6000×g at 4° C. to remove cell debris. Supernatants were collected and kept at −70° C. until tested.

MBA-15 cells = assay: SDF-1, bFGF and HGF secretion by stromal cells (ELISA of supernatants); type: cell-based, mouse; settings: 10 μM, compared with untreated cells
Procedure: (§2) FIGS. 7A-7F. Effect of TL-1, AK-1 and cyclic TL-1 on SDF-1, bFGF and HGF secretion by different stromal cell lines. MS-5, MBA-15 and MG-63 cells were co-cultured with 10 μM TL-1, AK-1 or cyclic TL-1 in the serum free medium for 6 hrs, or without added peptide (UT). Levels of SDF-1 (A-C), bFGF (D) and HGF (E, F) were detected in the collected supernatants by ELISA. Data shown are the mean±SD of 2 separate experiments. *P<0.05 compared to control.
as §1
(§3) Because BM stromal cells, such as endosteal bone lining osteoblasts and endothelial cells are the main source of human and murine SDF-1, the capability of the peptides to affect SDF-1 secretion by mouse stromal MS-5 and MBA-15 cells, and human osteoblast MG-63 cells was examined.
(§4) In order to examine the capability of the peptides to induce secretion of other proteins, the levels of Hepatocyte growth factor (HGF) and Basic fibroblast growth factor (bFGF) were detected in the same supernatants.

MS-5 cells = assay: as above; type: cell-based, mouse; settings: 10 μM, compared with untreated cells
Procedure: as §2, §1, §3, §4

MG-63 cells = assay: as above; type: cell-based, human; settings: 10 μM, compared with untreated cells
Procedure: as §2
as §1, with “When the cells reached confluence, the medium was changed to serum free medium and cells were cultivated for additional 6 hrs in the presence of various concentrations of the peptides. Medium samples were collected and centrifuged 10 min at 6000×g at 4° C. to remove cell debris. Supernatants were collected and kept at −70° C. until tested.” left out
as §4

| SMILES | cellular toxicity (percentage of PI+ dead cells) (pre-B-ALL G2 cells) | SDF-1 plasma levels (SDF-1) | levels of SDF-1 in supernatants (MBA-15 cells) | levels of SDF-1 in supernatants (MS-5 cells) | levels of SDF-1 in supernatants (MG-63 cells) |
| --- | --- | --- | --- | --- | --- |
| N=C(N)NCCC[C@H](NC(=O)CNC(=O)[C@@H](N)CO)C(=O)N[C@@H](CCCCN)C(=O)N[C@@H](CS)C(=O)N[C@@H](CS)C(=O)N[C@@H](CCCNC(=N)N)C(=O)N[C@@H](CCCCN)C(=O)N[C@@H](CCCCN)C(=O)N[C@@H](CCCCN)C(=O)O [AK-1, SGRKCCRKKK] (H-SGRKCCRKKK-OH) | Low cellular toxicity |  |  |  |  |
| c1cc(CN2CCCNCCNCCCNCC2)ccc1CN1CCCNCCNCCCNCC1 [AMD3100, reference compound] |  | significant elevation | did not affect | did not affect | did not affect |
| N=C(N)NCCC[C@H](NC(=O)CNC(=O)[C@@H](N)CCCNC(=N)N)C(=O)N[C@@H](CCCCN)C(=O)N[C@@H](CS)C(=O)N[C@@H](CS)C(=O)N[C@@H](CCCNC(=N)N)C(=O)N[C@@H](CCCNC(=N)N)C(=O)N[C@@H](CCCCN)C(=O)N[C@@H](CCCCN)C(=O)O [TL-1, RGRKCCRRKK] (H-RGRKCCRRKK-OH) | Low cellular toxicity |  |  |  |  |
